Test results: ChEMBL document CHEMBL2380302, “Synthesis of 3-O-propargylated betulinic acid and its 1,2,3-triazoles as potential apoptotic agents” (Eur J Med Chem, 2013)

Key:
HEp-2 [1] = assay: Cytotoxicity against human Hep2 cells at 1 uM after 48 hrs by SRB assay; type: functional; settings: HEp-2, 48 h, read-out: GI
HCT-15 [2] = assay: Cytotoxicity against human HCT15 cells at 1 uM after 48 hrs by SRB assay; type: functional; settings: HCT-15, 48 h, read-out: GI
HCT-15 [3] = assay: Cytotoxicity against human HCT15 cells at 30 uM after 48 hrs by SRB assay; type: functional; settings: HCT-15, 48 h, read-out: GI
SF-295 [4] = assay: Cytotoxicity against human SF295 cells after 48 hrs by SRB assay; type: functional, cell-based; settings: SF-295, 48 h
A549 [5] = assay: Cytotoxicity against human A549 cells at 30 uM after 48 hrs by SRB assay; type: functional; settings: A549, 48 h, read-out: GI
MCF7 [6] = assay: Cytotoxicity against human MCF7 cells after 48 hrs by SRB assay; type: functional, cell-based; settings: MCF7, 48 h
HL-60 [7] = assay: Cytotoxicity against human HL60 cells after 48 hrs by SRB assay; type: functional, cell-based; settings: HL-60, 48 h
A549 [8] = assay: Cytotoxicity against human A549 cells at 10 uM after 48 hrs by SRB assay; type: functional; settings: A549, 48 h, read-out: GI
SF-295 [9] = assay: Cytotoxicity against human SF295 cells at 50 uM after 48 hrs by SRB assay; type: functional; settings: SF-295, 48 h, read-out: GI
PC-3 [10] = assay: Cytotoxicity against human PC3 cells at 30 uM after 48 hrs by SRB assay; type: functional; settings: PC-3, 48 h, read-out: GI
HEp-2 [11] = assay: Cytotoxicity against human Hep2 cells at 50 uM after 48 hrs by SRB assay; type: functional; settings: HEp-2, 48 h, read-out: GI
THP-1 [12] = assay: Cytotoxicity against human THP1 cells at 50 uM after 48 hrs by SRB assay; type: functional; settings: THP-1, 48 h, read-out: GI
HEp-2 [13] = assay: Cytotoxicity against human Hep2 cells after 48 hrs by SRB assay; type: functional, cell-based; settings: HEp-2, 48 h
A549 [14] = assay: Cytotoxicity against human A549 cells at 50 uM after 48 hrs by SRB assay; type: functional; settings: A549, 48 h, read-out: GI
SF-295 [15] = assay: Cytotoxicity against human SF295 cells at 10 uM after 48 hrs by SRB assay; type: functional; settings: SF-295, 48 h, read-out: GI
SF-295 [16] = assay: Cytotoxicity against human SF295 cells at 30 uM after 48 hrs by SRB assay; type: functional; settings: SF-295, 48 h, read-out: GI
HCT-15 [17] = assay: Cytotoxicity against human HCT15 cells after 48 hrs by SRB assay; type: functional, cell-based; settings: HCT-15, 48 h
DU-145 [18] = assay: Cytotoxicity against human DU145 cells at 50 uM after 48 hrs by SRB assay; type: functional; settings: DU-145, 48 h, read-out: GI
MCF7 [19] = assay: Cytotoxicity against human MCF7 cells at 30 uM after 48 hrs by SRB assay; type: functional; settings: MCF7, 48 h, read-out: GI
DU-145 [20] = assay: Cytotoxicity against human DU145 cells at 30 uM after 48 hrs by SRB assay; type: functional; settings: DU-145, 48 h, read-out: GI
THP-1 [21] = assay: Cytotoxicity against human THP1 cells after 48 hrs by SRB assay; type: functional, cell-based; settings: THP-1, 48 h
A549 [22] = assay: Cytotoxicity against human A549 cells after 48 hrs by SRB assay; type: functional, cell-based; settings: A549, 48 h
HCT-15 [23] = assay: Cytotoxicity against human HCT15 cells at 50 uM after 48 hrs by SRB assay; type: functional; settings: HCT-15, 48 h, read-out: GI
PC-3 [24] = assay: Cytotoxicity against human PC3 cells at 50 uM after 48 hrs by SRB assay; type: functional; settings: PC-3, 48 h, read-out: GI
THP-1 [25] = assay: Cytotoxicity against human THP1 cells at 30 uM after 48 hrs by SRB assay; type: functional; settings: THP-1, 48 h, read-out: GI
DU-145 [26] = assay: Cytotoxicity against human DU145 cells after 48 hrs by SRB assay; type: functional, cell-based; settings: DU-145, 48 h
PC-3 [27] = assay: Cytotoxicity against human PC3 cells after 48 hrs by SRB assay; type: functional, cell-based; settings: PC-3, 48 h
MCF7 [28] = assay: Cytotoxicity against human MCF7 cells at 10 uM after 48 hrs by SRB assay; type: functional; settings: MCF7, 48 h, read-out: GI
HEp-2 [29] = assay: Cytotoxicity against human Hep2 cells at 30 uM after 48 hrs by SRB assay; type: functional; settings: HEp-2, 48 h, read-out: GI
HCT-15 [30] = assay: Cytotoxicity against human HCT15 cells at 10 uM after 48 hrs by SRB assay; type: functional; settings: HCT-15, 48 h, read-out: GI
HL-60 [31] = assay: Cytotoxicity against human HL60 cells at 50 uM after 48 hrs by SRB assay; type: functional; settings: HL-60, 48 h, read-out: GI
HL-60 [32] = assay: Cytotoxicity against human HL60 cells at 10 uM after 48 hrs by SRB assay; type: functional; settings: HL-60, 48 h, read-out: GI
HL-60 [33] = assay: Cytotoxicity against human HL60 cells at 30 uM after 48 hrs by SRB assay; type: functional; settings: HL-60, 48 h, read-out: GI
THP-1 [34] = assay: Cytotoxicity against human THP1 cells at 10 uM after 48 hrs by SRB assay; type: functional; settings: THP-1, 48 h, read-out: GI
MCF7 [35] = assay: Cytotoxicity against human MCF7 cells at 50 uM after 48 hrs by SRB assay; type: functional; settings: MCF7, 48 h, read-out: GI
PC-3 [36] = assay: Cytotoxicity against human PC3 cells at 10 uM after 48 hrs by SRB assay; type: functional; settings: PC-3, 48 h, read-out: GI
HEp-2 [37] = assay: Cytotoxicity against human Hep2 cells at 10 uM after 48 hrs by SRB assay; type: functional; settings: HEp-2, 48 h, read-out: GI
DU-145 [38] = assay: Cytotoxicity against human DU145 cells at 10 uM after 48 hrs by SRB assay; type: functional; settings: DU-145, 48 h, read-out: GI

| Structure (SMILES) | inhibition of growth at 30 µM (HCT-15 [3]) | IC50 (SF-295 [4]) | inhibition of growth at 30 µM (A549 [5]) | IC50 (MCF7 [6]) | IC50 (HL-60 [7]) | inhibition of growth at 10 µM (A549 [8]) | inhibition of growth at 50 µM (SF-295 [9]) | inhibition of growth at 30 µM (PC-3 [10]) | inhibition of growth at 50 µM (HEp-2 [11]) | inhibition of growth at 50 µM (THP-1 [12]) | IC50 (HEp-2 [13]) | inhibition of growth at 50 µM (A549 [14]) | inhibition of growth at 10 µM (SF-295 [15]) | inhibition of growth at 30 µM (SF-295 [16]) | IC50 (HCT-15 [17]) | inhibition of growth at 50 µM (DU-145 [18]) | inhibition of growth at 30 µM (MCF7 [19]) | inhibition of growth at 30 µM (DU-145 [20]) | IC50 (THP-1 [21]) | IC50 (A549 [22]) | other results |
| --- | --- | --- | --- | --- | --- | --- | --- | --- | --- | --- | --- | --- | --- | --- | --- | --- | --- | --- | --- | --- | --- |
| CO[C@@]12[C@H](COC(N)=O)C3=C(C(=O)C(C)=C(N)C3=O)N1C[C@@H]1N[C@@H]12 [MITOMYCIN] |  |  |  |  |  |  |  |  |  |  |  |  |  |  |  |  |  |  |  |  | inhibition of growth at 1 µM (HEp-2 [1]): 68%; inhibition of growth at 1 µM (HCT-15 [2]): 76% |
| C=C(C)[C@@H]1CC[C@]2(C(=O)O)CC[C@]3(C)[C@H](CC[C@@H]4[C@@]5(C)CC[C@H](OCc6cn(-c7cc(I)ccc7C)nn6)C(C)(C)[C@@H]5CC[C@]43C)[C@@H]12 | 25% | > 50 µM | 53% | 27 µM | 18 µM | 43% | 35% | 22% | 25% | 96% | > 50 µM | 67% | 8% | 20% | > 50 µM | 65% | 54% | 41% | 22 µM | 23 µM | inhibition of growth at 50 µM (HCT-15 [23]): 34%; inhibition of growth at 50 µM (PC-3 [24]): 4%; inhibition of growth at 30 µM (THP-1 [25]): 56%; IC50 (DU-145 [26]): 39 µM; IC50 (PC-3 [27]): > 50 µM; inhibition of growth at 10 µM (MCF7 [28]): 30%; inhibition of growth at 30 µM (HEp-2 [29]): 14%; inhibition of growth at 10 µM (HCT-15 [30]): 9%; inhibition of growth at 50 µM (HL-60 [31]): 97%; inhibition of growth at 10 µM (HL-60 [32]): 40%; inhibition of growth at 30 µM (HL-60 [33]): 60%; inhibition of growth at 10 µM (THP-1 [34]): 38%; inhibition of growth at 50 µM (MCF7 [35]): 74%; inhibition of growth at 10 µM (PC-3 [36]): 5%; inhibition of growth at 10 µM (HEp-2 [37]): 7%; inhibition of growth at 10 µM (DU-145 [38]): 24% |
| C=C(C)[C@@H]1CC[C@]2(C(=O)O)CC[C@]3(C)[C@H](CC[C@@H]4[C@@]5(C)CC[C@H](OCc6cn(-c7cccc(CO)c7)nn6)C(C)(C)[C@@H]5CC[C@]43C)[C@@H]12 | 70% | 53 µM | 45% | 17 µM | 7 µM | 43% | 47% | 29% | 78% | 93% | 8 µM | 67% | 27% | 37% | 25 µM | 65% | 71% | 52% | 10 µM | 32 µM | inhibition of growth at 50 µM (HCT-15 [23]): 71%; inhibition of growth at 50 µM (PC-3 [24]): 49%; inhibition of growth at 30 µM (THP-1 [25]): 91%; IC50 (DU-145 [26]): 23 µM; IC50 (PC-3 [27]): 50 µM; inhibition of growth at 10 µM (MCF7 [28]): 36%; inhibition of growth at 30 µM (HEp-2 [29]): 74%; inhibition of growth at 10 µM (HCT-15 [30]): 11%; inhibition of growth at 50 µM (HL-60 [31]): 95%; inhibition of growth at 10 µM (HL-60 [32]): 53%; inhibition of growth at 30 µM (HL-60 [33]): 93%; inhibition of growth at 10 µM (THP-1 [34]): 50%; inhibition of growth at 50 µM (MCF7 [35]): 75%; inhibition of growth at 10 µM (PC-3 [36]): 4%; inhibition of growth at 10 µM (HEp-2 [37]): 51%; inhibition of growth at 10 µM (DU-145 [38]): 43% |
